# Reference: PubChem BioAssay AID1259407 (Chemical Carcinogenesis Research Information System (CCRIS), 2018)
# The source made the active and inactive calls. How the calls were made is not given here.
# System: CCRIS mutagenicity, Ames/micronucleus/aberration tests
# Test: CCRIS mutagenicity studies
# [1] = Test System: AMES SALMONELLA TYPHIMURIUM, Strain/Indicator: TA98, Metabolic Activation: NONE, Method: PREINCUBATION
# [2] = Test System: AMES SALMONELLA TYPHIMURIUM, Strain/Indicator: TA100, Metabolic Activation: NONE, Method: PREINCUBATION
# [3] = Test System: AMES SALMONELLA TYPHIMURIUM, Strain/Indicator: TA98, Metabolic Activation: NONE, Method: STANDARD PLATE
# [4] = Test System: AMES SALMONELLA TYPHIMURIUM, Strain/Indicator: TA100, Metabolic Activation: NONE, Method: STANDARD PLATE
# [5] = Test System: AMES SALMONELLA TYPHIMURIUM, Strain/Indicator: TA98, Metabolic Activation: RAT, LIVER, S-9, AROCLOR 1254, Method: STANDARD PLATE
# [6] = Test System: AMES SALMONELLA TYPHIMURIUM, Strain/Indicator: TA100, Metabolic Activation: RAT, LIVER, S-9, AROCLOR 1254, Method: STANDARD PLATE
# [7] = Test System: AMES SALMONELLA TYPHIMURIUM, Strain/Indicator: TA1535, Metabolic Activation: NONE, Method: STANDARD PLATE
# [8] = Test System: AMES SALMONELLA TYPHIMURIUM, Strain/Indicator: TA1535, Metabolic Activation: RAT, LIVER, S-9, AROCLOR 1254, Method: STANDARD PLATE
# [9] = Test System: AMES SALMONELLA TYPHIMURIUM, Strain/Indicator: TA1537, Metabolic Activation: NONE, Method: STANDARD PLATE
# [10] = Test System: AMES SALMONELLA TYPHIMURIUM, Strain/Indicator: TA1537, Metabolic Activation: RAT, LIVER, S-9, AROCLOR 1254, Method: STANDARD PLATE
# [11] = Test System: AMES SALMONELLA TYPHIMURIUM, Strain/Indicator: TA1538, Metabolic Activation: NONE, Method: STANDARD PLATE
# [12] = Test System: AMES SALMONELLA TYPHIMURIUM, Strain/Indicator: TA1538, Metabolic Activation: RAT, LIVER, S-9, AROCLOR 1254, Method: STANDARD PLATE
structure (smiles),measurement,setting,value
Cc1ccccc1N=Nc1ccc(N(C)C)cc1,mutagenic call,"Test System: AMES SALMONELLA TYPHIMURIUM, Strain/Indicator: TA98, Metabolic Activation: HAMSTER, LIVER, S-9, AROCLOR 1254 (10%), Method: PREINCUBATION",inactive; negative
same,mutagenic call,[1],inactive; negative
same,mutagenic call,"Test System: AMES SALMONELLA TYPHIMURIUM, Strain/Indicator: TA98, Metabolic Activation: RAT, LIVER, S-9, AROCLOR 1254 (10%), Method: PREINCUBATION",inactive; negative
same,mutagenic call,"Test System: AMES SALMONELLA TYPHIMURIUM, Strain/Indicator: TA100, Metabolic Activation: HAMSTER, LIVER, S-9, AROCLOR 1254 (10%), Method: PREINCUBATION",inactive; negative
same,mutagenic call,[2],inactive; negative
same,mutagenic call,"Test System: AMES SALMONELLA TYPHIMURIUM, Strain/Indicator: TA100, Metabolic Activation: RAT, LIVER, S-9, AROCLOR 1254 (10%), Method: PREINCUBATION",inactive; negative
same,mutagenic call,"Test System: AMES SALMONELLA TYPHIMURIUM, Strain/Indicator: TA1535, Metabolic Activation: HAMSTER, LIVER, S-9, AROCLOR 1254 (10%), Method: PREINCUBATION",inactive; negative
same,mutagenic call,"Test System: AMES SALMONELLA TYPHIMURIUM, Strain/Indicator: TA1535, Metabolic Activation: NONE, Method: PREINCUBATION",inactive; negative
same,mutagenic call,"Test System: AMES SALMONELLA TYPHIMURIUM, Strain/Indicator: TA1535, Metabolic Activation: RAT, LIVER, S-9, AROCLOR 1254 (10%), Method: PREINCUBATION",inactive; negative
same,mutagenic call,"Test System: AMES SALMONELLA TYPHIMURIUM, Strain/Indicator: TA1537, Metabolic Activation: HAMSTER, LIVER, S-9, AROCLOR 1254 (10%), Method: PREINCUBATION",inactive; negative
same,mutagenic call,"Test System: AMES SALMONELLA TYPHIMURIUM, Strain/Indicator: TA1537, Metabolic Activation: NONE, Method: PREINCUBATION",inactive; negative
same,mutagenic call,"Test System: AMES SALMONELLA TYPHIMURIUM, Strain/Indicator: TA1537, Metabolic Activation: RAT, LIVER, S-9, AROCLOR 1254 (10%), Method: PREINCUBATION",inactive; negative
same,mutagenic call,"Test System: E. COLI, Strain/Indicator: WP2 UVRA, Metabolic Activation: HAMSTER, LIVER, S-9, AROCLOR 1254, Method: STANDARD PLATE",inactive; negative
same,mutagenic call,"Test System: E. COLI, Strain/Indicator: WP2 UVRA, Metabolic Activation: HAMSTER, LIVER, S-9, Method: STANDARD PLATE",inactive; negative
same,mutagenic call,"Test System: E. COLI, Strain/Indicator: WP2 UVRA, Metabolic Activation: MOUSE, LIVER, S-9, AROCLOR 1254, Method: STANDARD PLATE",inactive; negative
same,mutagenic call,"Test System: E. COLI, Strain/Indicator: WP2 UVRA, Metabolic Activation: MOUSE, LIVER, S-9, Method: STANDARD PLATE",inactive; negative
same,mutagenic call,"Test System: E. COLI, Strain/Indicator: WP2 UVRA, Metabolic Activation: NONE, Method: STANDARD PLATE",inactive; negative
same,mutagenic call,"Test System: E. COLI, Strain/Indicator: WP2 UVRA, Metabolic Activation: RAT, LIVER, S-9, AROCLOR 1254, Method: STANDARD PLATE",inactive; negative
same,mutagenic call,"Test System: E. COLI, Strain/Indicator: WP2 UVRA, Metabolic Activation: RAT, LIVER, S-9, Method: STANDARD PLATE",inactive; negative
COc1ccccc1NC(=O)c1csc([N+](=O)[O-])c1,mutagenic call,[3],active; positive
same,mutagenic call,[4],active; positive
COc1nncc2cnccc12,mutagenic call,[1],inactive; negative
same,mutagenic call,"Test System: AMES SALMONELLA TYPHIMURIUM, Strain/Indicator: TA98, Metabolic Activation: RAT, LIVER, S-9, PCB, Method: PREINCUBATION",inactive; negative
same,mutagenic call,[2],inactive; negative
same,mutagenic call,"Test System: AMES SALMONELLA TYPHIMURIUM, Strain/Indicator: TA100, Metabolic Activation: RAT, LIVER, S-9, PCB, Method: PREINCUBATION",inactive; negative
CC1(C)[C@@H](O[C@H]2O[C@H](C(=O)O)[C@@H](O)[C@H](O)[C@H]2O[C@@H]2O[C@H](C(=O)O)[C@@H](O)[C@H](O)[C@H]2O)CC[C@]2(C)[C@H]3C(=O)C=C4[C@@H]5C[C@@](C)(C(=O)O)CC[C@]5(C)CC[C@@]4(C)[C@]3(C)CC[C@@H]12,mutagenic call,"End Point: IN VIVO MICRONUCLEUS, Test System: BONE MARROW POLYCHROMATIC ERYTHROCYTES, Species: MOUSE, Strain/Sex: DDY/MALE, Route: IP",inactive; negative
same,mutagenic call,"Test System: AMES SALMONELLA TYPHIMURIUM, Strain/Indicator: TA97A, Metabolic Activation: NONE, Method: PREINCUBATION",inactive; negative
same,mutagenic call,"Test System: AMES SALMONELLA TYPHIMURIUM, Strain/Indicator: TA97A, Metabolic Activation: RAT, LIVER, S-9, AROCLOR 1254, Method: PREINCUBATION",inactive; negative
same,mutagenic call,[3],inactive; negative
same,mutagenic call,[5],inactive; negative
same,mutagenic call,[4],inactive; negative
same,mutagenic call,[6],inactive; negative
same,mutagenic call,"Test System: AMES SALMONELLA TYPHIMURIUM, Strain/Indicator: TA102, Metabolic Activation: NONE, Method: PREINCUBATION",inactive; negative
same,mutagenic call,"Test System: AMES SALMONELLA TYPHIMURIUM, Strain/Indicator: TA102, Metabolic Activation: RAT, LIVER, S-9, AROCLOR 1254, Method: PREINCUBATION",inactive; negative
same,mutagenic call,[7],inactive; negative
same,mutagenic call,[8],inactive; negative
same,mutagenic call,[9],inactive; negative
same,mutagenic call,[10],inactive; negative
same,mutagenic call,[11],inactive; negative
same,mutagenic call,[12],inactive; negative
same,mutagenic call,"Test System: E. COLI, Strain/Indicator: WP2, Metabolic Activation: NONE, Method: STANDARD PLATE",inactive; negative
same,mutagenic call,"Test System: E. COLI, Strain/Indicator: WP2, Metabolic Activation: RAT, LIVER, S-9, AROCLOR 1254, Method: STANDARD PLATE",inactive; negative
O=C(CCl)NCO,mutagenic call,"Test System: AMES SALMONELLA TYPHIMURIUM, Strain/Indicator: TA97, Metabolic Activation: NONE, Method: STANDARD PLATE",inactive; negative
same,mutagenic call,"Test System: AMES SALMONELLA TYPHIMURIUM, Strain/Indicator: TA97, Metabolic Activation: RAT, LIVER, S-9, AROCLOR 1254, Method: STANDARD PLATE",inactive; negative
same,mutagenic call,[1],inactive; negative
same,mutagenic call,[3],inactive; negative
same,mutagenic call,"Test System: AMES SALMONELLA TYPHIMURIUM, Strain/Indicator: TA98, Metabolic Activation: RAT, LIVER, S-9, AROCLOR 1254, Method: PREINCUBATION",inactive; negative
same,mutagenic call,[5],inactive; negative
same,mutagenic call,[2],inactive; negative
same,mutagenic call,[4],inactive; negative
same,mutagenic call,"Test System: AMES SALMONELLA TYPHIMURIUM, Strain/Indicator: TA100, Metabolic Activation: RAT, LIVER, S-9, AROCLOR 1254, Method: PREINCUBATION",inactive; negative
same,mutagenic call,[6],inactive; negative
same,mutagenic call,[7],inactive; negative
same,mutagenic call,[8],inactive; negative
same,mutagenic call,[9],inactive; negative
same,mutagenic call,[10],inactive; negative
same,mutagenic call,[11],inactive; negative
same,mutagenic call,[12],inactive; negative
O=[N+]([O-])c1c(Cl)cc2c(c1Cl)Oc1cc(Cl)c(Cl)cc1O2,mutagenic call,[3],inactive; negative
same,mutagenic call,"Test System: AMES SALMONELLA TYPHIMURIUM, Strain/Indicator: TA98, Metabolic Activation: RAT, LIVER, S-9, AROCLOR, Method: STANDARD PLATE",inactive; negative
same,mutagenic call,[4],inactive; negative
same,mutagenic call,"Test System: AMES SALMONELLA TYPHIMURIUM, Strain/Indicator: TA100, Metabolic Activation: RAT, LIVER, S-9, AROCLOR, Method: STANDARD PLATE",inactive; negative
